# Source: patent US11214594B2, “Antimicrobial peptide having synergistic antibacterial effect with antibiotics on multidrug resistant bacteria, and use thereof” (priority 2016, dated 2022)
# Where a SMILES comes first, the peptide text is derived from it.
# Columns and labels:
# [1] = test system: MDRAB 12036; type: cell-based, Acinetobacter baumannii
# Outline: (§1)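 Each strain is brought to 2×10^6 CFU in nutrient-sufficient Mueller-Hinton medium and dispensed into wells. Peptide solutions, stepwise diluted 2:1 in the same medium, are then added. The minimal concentration preventing growth gives the MIC.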
# [2] = test system: MRSA 3114; type: cell-based, Staphylococcus aureus; conditions: 3114
# Outline: as §1
# [3] = test system: MRSA 3126; type: cell-based, Staphylococcus aureus; conditions: 3126
# Outline: as §1
# [4] = test system: S. typhimurium; assay: microbe, parasite or virus in culture; type: cell-based, Salmonella typhimurium
# Outline: as §1
# [5] = test system: MDRST 8007; assay: Minimal inhibitory concentration (MIC), single agent; type: cell-based, Salmonella typhimurium; conditions: agent alone
# Outline: as §1
# [6] = test system: MDRAB 12035; assay: MIC of antibiotic during combined treatment with antimicrobial peptide; type: cell-based, Acinetobacter baumannii
# Outline: (§2)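 Antibiotic MIC came from antibiotic dilutions added to bacteria (2×10^6 CFU/ml, MH medium) already combined with peptide serially diluted 2:1 from its own MIC. Swapping the roles of the two agents gave the peptide MIC.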
# [7] = test system: MDRPA 2003; type: cell-based, Pseudomonas aeruginosa
# Outline: as §1
# [8] = test system: MDRPA 2002; type: cell-based, Pseudomonas aeruginosa
# Outline: as §1
# [9] = test system: MDREC 1229; assay: MIC of antibiotic during combined treatment with antimicrobial peptide; type: cell-based, Escherichia coli
# Outline: as §2
# [10] = test system: gram-negative bacteria; assay: MIC, summary statements for gram-negative bacteria; type: cell-based; conditions: most of the gram-negative bacteria
# Outline: as §1
# [11] = test system: MDREC 1238; type: cell-based, Escherichia coli
# Outline: as §1
# [12] = peptide treatment concentration 1 μg/ml
# [13] = peptide treatment concentration 2 μg/ml
# [14] = peptide treatment concentration 4 μg/ml
# [15] = peptide treatment concentration 6 μg/ml
# [16] = peptide treatment concentration 8 μg/ml
# [17] = peptide treatment concentration 16 μg/ml
# [18] = peptide treatment concentration 32 μg/ml
# [19] = peptide treatment concentration 64 μg/ml
compound,measurement,setting,value
"CC[C@H](C)[C@H](NC(=O)[C@H](CCCCN)NC(=O)[C@H](Cc1c[nH]c2ccccc12)NC(=O)[C@@H](N)CCCNC(=N)N)C(=O)N[C@@H](Cc1ccccc1)C(=O)N[C@@H](CCCCN)C(=O)N[C@@H](CCCCN)C(=O)N[C@H](C(=O)N1CCC[C@H]1C(=O)N[C@@H](CCCCN)C(=O)N[C@@H](CC(C)C)C(=O)N[C@@H](CC(C)C)C(=O)N[C@@H](Cc1c[nH]cn1)C(=O)N[C@@H](CO)C(=O)N[C@@H](Cc1ccccc1)C(=O)N[C@@H](CCCCN)C(=O)N[C@@H](CCCCN)C(=O)N[C@@H](Cc1ccccc1)C(N)=O)[C@@H](C)CC [PapMA-7, RWK IFK KIP KLL HSF KKF-NH2] (H-RWKIFKKIPKLLHSFKKF-NH2; N-terminus assumed)",Minimal inhibitory concentration MIC,[1],32 µg/mL
same,Minimal inhibitory concentration MIC,[2],>128 µg/mL
same,Minimal inhibitory concentration MIC,[3],>128 µg/mL
same,Minimal inhibitory concentration MIC,[4],16 µg/mL
same,Minimal inhibitory concentration MIC,[5],32 µg/mL
same,Erythromycin MIC during combined treatment with peptide,[6]; [12],8 µg/mL
same,Linezolid MIC during combined treatment with peptide,[6]; [12],64 µg/mL
same,Vancomycin MIC during combined treatment with peptide,[6]; [12],128 µg/mL
same,Erythromycin MIC during combined treatment with peptide,[6]; [13],4 µg/mL
same,Linezolid MIC during combined treatment with peptide,[6]; [13],32 µg/mL
same,Vancomycin MIC during combined treatment with peptide,[6]; [13],32 µg/mL
same,Erythromycin MIC during combined treatment with peptide,[6]; [14],2 µg/mL
same,Linezolid MIC during combined treatment with peptide,[6]; [14],8 µg/mL
same,Vancomycin MIC during combined treatment with peptide,[6]; [14],8 µg/mL
same,Erythromycin MIC during combined treatment with peptide,[6]; [15],0.5 µg/mL
same,Linezolid MIC during combined treatment with peptide,[6]; [15],4 µg/mL
same,Vancomycin MIC during combined treatment with peptide,[6]; [15],4 µg/mL
same,Erythromycin MIC during combined treatment with peptide,[6]; [16],0.125 µg/mL
same,Linezolid MIC during combined treatment with peptide,[6]; [16],2 µg/mL
same,Vancomycin MIC during combined treatment with peptide,[6]; [16],2 µg/mL
same,Erythromycin MIC during combined treatment with peptide,[6]; [17],0.0625 µg/mL
same,Linezolid MIC during combined treatment with peptide,[6]; [17],1 µg/mL
same,Vancomycin MIC during combined treatment with peptide,[6]; [17],1 µg/mL
same,Erythromycin MIC during combined treatment with peptide,[6]; [18],0 µg/mL
same,Linezolid MIC during combined treatment with peptide,[6]; [18],0 µg/mL
same,Vancomycin MIC during combined treatment with peptide,[6]; [18],0 µg/mL
same,Erythromycin MIC during combined treatment with peptide,[6]; [19],0 µg/mL
same,Linezolid MIC during combined treatment with peptide,[6]; [19],0 µg/mL
same,Vancomycin MIC during combined treatment with peptide,[6]; [19],0 µg/mL
same,Minimal inhibitory concentration MIC,[7],16 µg/mL
same,Minimal inhibitory concentration MIC,[8],16 µg/mL
same,"Antibiotic MIC, Erythromycin",[9]; [12],64 µg/mL
same,"Antibiotic MIC, Linezolid",[9]; [12],128 µg/mL
same,"Antibiotic MIC, Vancomycin",[9]; [12],>128 µg/mL
same,"Antibiotic MIC, Erythromycin",[9]; [13],16 µg/mL
same,"Antibiotic MIC, Linezolid",[9]; [13],32 µg/mL
same,"Antibiotic MIC, Vancomycin",[9]; [13],>128 µg/mL
same,"Antibiotic MIC, Erythromycin",[9]; [14],4 µg/mL
same,"Antibiotic MIC, Linezolid",[9]; [14],16 µg/mL
same,"Antibiotic MIC, Vancomycin",[9]; [14],128 µg/mL
same,"Antibiotic MIC, Erythromycin",[9]; [15],2 µg/mL
same,"Antibiotic MIC, Linezolid",[9]; [15],8 µg/mL
same,"Antibiotic MIC, Vancomycin",[9]; [15],16 µg/mL
same,"Antibiotic MIC, Erythromycin",[9]; [16],1 µg/mL
same,"Antibiotic MIC, Linezolid",[9]; [16],4 µg/mL
same,"Antibiotic MIC, Vancomycin",[9]; [16],8 µg/mL
same,"Antibiotic MIC, Erythromycin",[9]; [17],0.125 µg/mL
same,"Antibiotic MIC, Linezolid",[9]; [17],2 µg/mL
same,"Antibiotic MIC, Vancomycin",[9]; [17],2 µg/mL
same,"Antibiotic MIC, Erythromycin",[9]; [18],0.0625 µg/mL
same,"Antibiotic MIC, Linezolid",[9]; [18],1 µg/mL
same,"Antibiotic MIC, Vancomycin",[9]; [18],1 µg/mL
same,"Antibiotic MIC, Erythromycin",[9]; [19],0 µg/mL
same,"Antibiotic MIC, Linezolid",[9]; [19],0 µg/mL
same,"Antibiotic MIC, Vancomycin",[9]; [19],0 µg/mL
same,"Antibacterial activity relative to PapMA-1, PapMA-2, PapMA-3 and PapMA-4",[10],same or higher
same,Minimal inhibitory concentration MIC,[11],64 µg/mL
"CC[C@H](C)[C@H](NC(=O)[C@H](CCCCN)NC(=O)[C@H](Cc1c[nH]c2ccccc12)NC(=O)[C@@H](N)CCCNC(=N)N)C(=O)N[C@@H](Cc1ccccc1)C(=O)N[C@@H](CCCCN)C(=O)N[C@@H](CCCCN)C(=O)N[C@H](C(=O)N1CCC[C@H]1C(=O)N[C@@H](CCCCN)C(=O)N[C@@H](CC(C)C)C(=O)N[C@@H](CC(C)C)C(=O)N[C@@H](Cc1c[nH]cn1)C(=O)N[C@@H](CO)C(=O)N[C@@H](CC(C)C)C(=O)N[C@@H](CCCCN)C(=O)N[C@@H](CCCCN)C(=O)N[C@@H](Cc1ccccc1)C(N)=O)[C@@H](C)CC [PapMA-8, RWK IFK KIP KLL HSL KKF-NH2] (H-RWKIFKKIPKLLHSLKKF-NH2; N-terminus assumed)",Minimal inhibitory concentration MIC,[1],64 µg/mL
same,Minimal inhibitory concentration MIC,[2],>128 µg/mL
same,Minimal inhibitory concentration MIC,[3],>128 µg/mL
same,Minimal inhibitory concentration MIC,[4],32 µg/mL
same,Minimal inhibitory concentration MIC,[5],64 µg/mL
same,Erythromycin MIC during combined treatment with peptide,[6]; [12],32 µg/mL
same,Linezolid MIC during combined treatment with peptide,[6]; [12],>128 µg/mL
same,Vancomycin MIC during combined treatment with peptide,[6]; [12],>128 µg/mL
same,Erythromycin MIC during combined treatment with peptide,[6]; [13],32 µg/mL
same,Linezolid MIC during combined treatment with peptide,[6]; [13],>128 µg/mL
same,Vancomycin MIC during combined treatment with peptide,[6]; [13],>128 µg/mL
same,Erythromycin MIC during combined treatment with peptide,[6]; [14],16 µg/mL
same,Linezolid MIC during combined treatment with peptide,[6]; [14],64 µg/mL
same,Vancomycin MIC during combined treatment with peptide,[6]; [14],64 µg/mL
same,Erythromycin MIC during combined treatment with peptide,[6]; [15],8 µg/mL
same,Linezolid MIC during combined treatment with peptide,[6]; [15],32 µg/mL
same,Vancomycin MIC during combined treatment with peptide,[6]; [15],32 µg/mL
same,Erythromycin MIC during combined treatment with peptide,[6]; [16],4 µg/mL
same,Linezolid MIC during combined treatment with peptide,[6]; [16],16 µg/mL
same,Vancomycin MIC during combined treatment with peptide,[6]; [16],8 µg/mL
same,Erythromycin MIC during combined treatment with peptide,[6]; [17],2 µg/mL
same,Linezolid MIC during combined treatment with peptide,[6]; [17],4 µg/mL
same,Vancomycin MIC during combined treatment with peptide,[6]; [17],4 µg/mL
same,Erythromycin MIC during combined treatment with peptide,[6]; [18],1 µg/mL
same,Linezolid MIC during combined treatment with peptide,[6]; [18],2 µg/mL
same,Vancomycin MIC during combined treatment with peptide,[6]; [18],2 µg/mL
same,Erythromycin MIC during combined treatment with peptide,[6]; [19],0 µg/mL
same,Linezolid MIC during combined treatment with peptide,[6]; [19],0 µg/mL
same,Vancomycin MIC during combined treatment with peptide,[6]; [19],0 µg/mL
same,Minimal inhibitory concentration MIC,[7],16 µg/mL
same,Minimal inhibitory concentration MIC,[8],16 µg/mL
same,"Antibiotic MIC, Erythromycin",[9]; [12],>128 µg/mL
same,"Antibiotic MIC, Linezolid",[9]; [12],>128 µg/mL
same,"Antibiotic MIC, Vancomycin",[9]; [12],>128 µg/mL
same,"Antibiotic MIC, Erythromycin",[9]; [13],64 µg/mL
same,"Antibiotic MIC, Linezolid",[9]; [13],>128 µg/mL
same,"Antibiotic MIC, Vancomycin",[9]; [13],>128 µg/mL
same,"Antibiotic MIC, Erythromycin",[9]; [14],8 µg/mL
same,"Antibiotic MIC, Linezolid",[9]; [14],128 µg/mL
same,"Antibiotic MIC, Vancomycin",[9]; [14],>128 µg/mL
same,"Antibiotic MIC, Erythromycin",[9]; [15],4 µg/mL
same,"Antibiotic MIC, Linezolid",[9]; [15],32 µg/mL
same,"Antibiotic MIC, Vancomycin",[9]; [15],>128 µg/mL
same,"Antibiotic MIC, Erythromycin",[9]; [16],1 µg/mL
same,"Antibiotic MIC, Linezolid",[9]; [16],32 µg/mL
same,"Antibiotic MIC, Vancomycin",[9]; [16],32 µg/mL
same,"Antibiotic MIC, Erythromycin",[9]; [17],0.5 µg/mL
same,"Antibiotic MIC, Linezolid",[9]; [17],16 µg/mL
same,"Antibiotic MIC, Vancomycin",[9]; [17],16 µg/mL
same,"Antibiotic MIC, Erythromycin",[9]; [18],0.125 µg/mL
same,"Antibiotic MIC, Linezolid",[9]; [18],8 µg/mL
same,"Antibiotic MIC, Vancomycin",[9]; [18],8 µg/mL
same,"Antibiotic MIC, Erythromycin",[9]; [19],0 µg/mL
same,"Antibiotic MIC, Linezolid",[9]; [19],0 µg/mL
same,"Antibiotic MIC, Vancomycin",[9]; [19],0 µg/mL
same,"Antibacterial activity relative to PapMA-1, PapMA-2, PapMA-3 and PapMA-4",[10],same or higher
same,Minimal inhibitory concentration MIC,[11],64 µg/mL
